Measured values published in US12116388B2, “Amylin receptor agonists” (Novo Nordisk A/S, priority 2022, dated 2024).
Starred links: 1 amine or outer side, 2 acyl side, 3 side chain; linkers in the order of their positions; H or OH if unused. Residues, ends and D or L forms follow the SMILES beside them. Groups on a side chain read outwards from the residue. *: point of attachment. C18 diacid = O=C(O)CCCCCCCCCCCCCCCCC(=O)*; γGlu = O=C(O)[C@H](CCC(=O)[*:2])N[*:1]

How the values were obtained:
[1] = Oral pharmacokinetic profiles in Beagle dogs (SNAC tablets); type: in vivo; details: oral tablet: 3 mg compound, 300 mg SNAC, 7.7 mg magnesium stearate; for half-life: male, dog, plasma, read-out: T½ (converted)
Procedure: To be able to evaluate oral exposure following tablet dosing, tablet compositions comprising the test substance and SNAC (sodium N-(8-(2-hydroxybenzoyl)amino)caprylate) were prepared by mixing test substance with roller compacted SNAC and magnesium stearate as, e.g., described in WO 2019/149880.
This assay was performed to measure the oral bioavailability of a compound. The assay determined the exposure of test compound following oral administration in Beagle dogs as described by relevant pharmacokinetic parameters and plasma concentration curves.
Preparation of tablets for oral administration: tablets containing test compound used for the assay described herein were immediate release SNAC-based tablets. The test compound was spray-dried as neutral sodium salt (pH 7-8). Dry granulation was carried out by roller compaction on a Gerteis MINI-PACTOR. Tablets containing 3 mg test compound, 300 mg sodium N-(8-(2-hydroxybenzoyl)amino)caprylate (SNAC) and 7.7 mg magnesium stearate were produced on at Kilian Style One using 7.2×12 mm punches.
Determination of the absorption following oral administration: eight (8) male Beagle dogs, 1 to 8 years of age and weighing approximately 10-15 kg at the start of the studies, were used. The dogs were group-housed in pens (12 hours light:12 hours dark), and fed individually and restrictedly once daily with Royal Canin Medium Adult dog (Royal Canin Products, China Branch, or Brogaarden A/S, Denmark). Exercise and group social were permitted daily, whenever possible. The dogs were used for repeated pharmacokinetic studies with a suitable wash-out period between successive dosing. An appropriate acclimatisation period was given prior to initiation of the first pharmacokinetic study. All handling, dosing and blood sampling of the animals were performed by trained and skilled staff. Before the studies the dogs were fasted overnight and from 0 to 4 h after dosing. Besides, the dogs were restricted to water 1 hour before dosing until 4 hours after dosing, but otherwise had ad libitum access to water during the whole period.
Tablets containing the test compound were administered in the following manner: 10 min prior to tablet administration the dogs were dosed subcutaneously with approximately 3.2 nmol/kg of glucagon. The tablets were placed in the back of the mouth of the dog to prevent chewing. The mouth was then closed, and 10 mL of tap water was given by a syringe to facilitate swallowing of the tablet. Blood was sampled at predefined time points for up till 288 hours after dosing to adequately cover the full plasma concentration-time absorption profile of the compound. For each blood sampling time point approximately 1.2 mL of whole blood was collected in a 1.5 mL EDTA coated tube, and the tube was gently turned to allowing mixing of the sample with the EDTA. Then, the blood samples were kept on ice until centrifugation (4 min, 4° C., 4000 rpm). Plasma was pipetted into Micronic tubes on dry ice and kept at −20° C. until analysis. Blood samples were taken as appropriate, for example from a venflon in the cephalic vein in the front leg for the first 2 hours and then with syringe from the jugular vein for the rest of the time points (the first few drops were allowed to drain from the venflon to avoid heparin saline from the venflon in the sample).
Bioanalysis was carried out as follows: plasma concentrations of test compound were assayed by plasma protein precipitation and analysed by liquid chromatography-mass spectrometry (LC-MS). Calibrators were prepared by spiking blank dog plasma with analytes to reach the final concentrations in the range typically from 0.5 to 200 nM. Calibrators, plasma blanks or study samples were prepared for LC-MS by protein precipitation by adding 3 volumes of ethanol followed by centrifugation at 4000 rpm at 4° C. for 1 h. The supernatant was diluted with 2 volumes of Milli-Q water containing 0.1% formic acid before injection on the LC-MS system. […]

[2] = target: T1, human amylin receptor (hAMYR3) (Homo sapiens, UniProt O60896+P30988); experiment: Human amylin receptor (hAMYR3) in vitro potency assay, CRE-luciferase reporter in BHK cells; type: cell-based; details: BHK hAMYR3/CRE-Luc cells, 3 hours incubation, assay buffer with 1% ovalbumin
T1 construct: host or cells: BHK (Baby Hamster Kidney), Hollex-1 cell line further transfected with RAMP3
T1 sequence (P30988 25-474): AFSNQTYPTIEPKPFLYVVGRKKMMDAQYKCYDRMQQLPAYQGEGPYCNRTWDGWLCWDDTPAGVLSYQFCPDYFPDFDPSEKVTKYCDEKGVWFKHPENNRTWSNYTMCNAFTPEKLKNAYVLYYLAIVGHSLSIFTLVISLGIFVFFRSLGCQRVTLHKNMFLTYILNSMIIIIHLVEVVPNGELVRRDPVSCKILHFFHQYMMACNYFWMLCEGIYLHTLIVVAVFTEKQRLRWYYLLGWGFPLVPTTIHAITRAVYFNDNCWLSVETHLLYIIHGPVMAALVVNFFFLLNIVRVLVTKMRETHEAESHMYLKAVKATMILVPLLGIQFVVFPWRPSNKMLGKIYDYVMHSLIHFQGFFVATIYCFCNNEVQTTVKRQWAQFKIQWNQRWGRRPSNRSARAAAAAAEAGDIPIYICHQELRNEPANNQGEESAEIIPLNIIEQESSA
T1 sequence (O60896 24-148): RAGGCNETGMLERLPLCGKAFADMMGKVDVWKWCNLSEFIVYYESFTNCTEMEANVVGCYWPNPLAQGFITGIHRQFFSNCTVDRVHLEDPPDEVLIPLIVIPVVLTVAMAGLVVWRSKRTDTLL
Summary of the method: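 BHK cells stably expressing human calcitonin receptor (a) plus RAMP3 and a CRE-luciferase reporter, seeded overnight, then exposed to 7-point 7-fold dilutions (often from ~10 nM) in DMEM/HEPES buffer with 1% ovalbumin for 3 h at 37 °C. Luciferase luminescence read after SteadyLite Plus addition.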

| Structure (SMILES) | half-life [1] | AUC/D [1] | Cmax/D [1] | EC50 [2] |
| --- | --- | --- | --- | --- |
| CC[C@H](C)[C@H](NC(=O)[C@H](C)NC(=O)CNC(=O)[C@H](Cc1ccccc1)NC(=O)[C@@H]1CCCN1C(=O)[C@H](CC(=O)O)NC(=O)[C@H](CO)NC(=O)[C@H](CO)NC(=O)[C@H](Cc1c[nH]cn1)NC(=O)[C@H](Cc1c[nH]cn1)NC(=O)[C@H](CC(C)C)NC(=O)[C@H](Cc1ccccc1)NC(=O)[C@H](CCC(=O)O)NC(=O)[C@H](C)NC(=O)[C@H](CC(C)C)NC(=O)[C@H](CCCNC(=N)N)NC(=O)[C@H](CCC(N)=O)NC(=O)[C@@H](NC(=O)[C@H](CCC(N)=O)NC(=O)[C@H](C)NC(=O)[C@@H](NC(=O)[C@H](CO)NC(=O)[C@H](CC(C)C)NC(=O)[C@H](CO)NC(=O)CNC(=O)[C@H](C)NC(=O)CC[C@H](NC(=O)CCCCCCCCCCCCCCCCC(=O)O)C(=O)O)[C@@H](C)O)[C@@H](C)O)C(=O)N1CCC[C@H]1C(=O)N[C@@H](CO)C(=O)N[C@@H](CO)C(=O)N[C@H](C(=O)N[C@@H](CC(=O)O)C(=O)N[C@H](C(=O)NCC(=O)N1CCC[C@H]1C(=O)N[C@@H](CC(=O)O)C(=O)N[C@H](C(=O)N1CCC[C@H]1C(N)=O)[C@@H](C)O)C(C)C)[C@@H](C)O [Compound 10, N^1-[(4S)-4-carboxy-4-(17-carboxyheptadecanoylamino)butanoyl]-[Ala1,Gly2,Ser3,Leu4,Ser5,Ala7,Gln8,Glu14,His17,Asp21,Pro22,Pro27,Asp31,Pro34,Asp35,Pro37]-human amylin] ({C18 diacid-γGlu}-AGSLSTAQTQRLAEFLHHSSDPFGAIPSSTDVGPDTP-NH2) | 131 h | 27.73 kg·h/L | 0.34 kg/L | 1.44 pM |
| CC[C@H](C)[C@H](NC(=O)[C@H](C)NC(=O)CNC(=O)[C@H](Cc1ccccc1)NC(=O)[C@@H]1CCCN1C(=O)[C@H](CC(=O)O)NC(=O)[C@H](CO)NC(=O)[C@H](CO)NC(=O)[C@H](Cc1c[nH]cn1)NC(=O)[C@H](Cc1c[nH]cn1)NC(=O)[C@H](CC(C)C)NC(=O)[C@H](Cc1ccccc1)NC(=O)[C@H](CCC(=O)O)NC(=O)[C@H](C)NC(=O)[C@H](CC(C)C)NC(=O)[C@H](CCCNC(=N)N)NC(=O)[C@H](C)NC(=O)[C@@H](NC(=O)[C@H](CCC(N)=O)NC(=O)[C@H](C)NC(=O)[C@@H](NC(=O)[C@H](CO)NC(=O)[C@H](CC(C)C)NC(=O)[C@H](Cc1c[nH]cn1)NC(=O)[C@H](CO)NC(=O)[C@H](C)NC(=O)CC[C@H](NC(=O)CCCCCCCCCCCCCCCCC(=O)O)C(=O)O)[C@@H](C)O)[C@@H](C)O)C(=O)N1CCC[C@H]1C(=O)N[C@@H](CO)C(=O)N[C@@H](CO)C(=O)N[C@H](C(=O)N[C@@H](CC(=O)O)C(=O)N[C@H](C(=O)NCC(=O)N1CCC[C@H]1C(=O)N[C@@H](CC(=O)O)C(=O)N[C@H](C(=O)N1CCC[C@H]1C(N)=O)[C@@H](C)O)C(C)C)[C@@H](C)O [Compound 25, N^1-[(4S)-4-carboxy-4-(17-carboxyheptadecanoylamino)butanoyl]-[Ala1,Ser2,His3,Leu4,Ser5,Ala7,Gln8,Ala10,Glu14,His17,Asp21,Pro22,Pro27,Asp31,Pro34,Asp35,Pro37]-human amylin] ({C18 diacid-γGlu}-ASHLSTAQTARLAEFLHHSSDPFGAIPSSTDVGPDTP-NH2) | 152 h | 24.15 kg·h/L | 0.34 kg/L | 1.27 pM |
| CC[C@H](C)[C@H](NC(=O)[C@@H]1CCCN1C(=O)CNC(=O)[C@H](Cc1ccccc1)NC(=O)[C@H](Cc1c[nH]cn1)NC(=O)[C@H](Cc1c[nH]cn1)NC(=O)[C@H](CC(C)C)NC(=O)[C@H](Cc1ccccc1)NC(=O)[C@H](CCC(=O)O)NC(=O)[C@H](C)NC(=O)[C@H](CC(C)C)NC(=O)[C@H](CCCNC(=N)N)NC(=O)[C@H](C)NC(=O)[C@@H](NC(=O)[C@H](CCC(N)=O)NC(=O)[C@H](C)NC(=O)[C@@H](NC(=O)[C@H](CO)NC(=O)[C@H](CC(C)C)NC(=O)[C@H](Cc1c[nH]cn1)NC(=O)[C@H](CO)NC(=O)[C@H](C)NC(=O)CC[C@H](NC(=O)CC[C@H](NC(=O)CCCCCCCCCCCCCCCCC(=O)O)C(=O)O)C(=O)O)[C@@H](C)O)[C@@H](C)O)C(=O)N[C@@H](CC(C)C)C(=O)N1CCC[C@H]1C(=O)N1CCC[C@H]1C(=O)N[C@H](C(=O)N[C@@H](CC(=O)O)C(=O)N[C@H](C(=O)NCC(=O)N[C@@H](CO)C(=O)N[C@@H](CCC(=O)O)C(=O)N[C@H](C(=O)N1CCC[C@H]1C(N)=O)[C@@H](C)O)C(C)C)[C@@H](C)O [Compound 17, N^1-[(4S)-4-carboxy-4-[[(4S)-4-carboxy-4-(17-carboxyheptadecanoylamino)butanoyl]amino]butanoyl]-[Ala1,Ser2,His3,Leu4,Ser5,Ala7,Gln8,Ala10,Glu14,His17,Pro25,Pro28,Pro29,Asp31,Glu35,Pro37],des-(19-22)-human amylin] ({C18 diacid-γGlu-γGlu}-ASHLSTAQTARLAEFLHHFGPILPPTDVGSETP-NH2) | 94.8 h | 19.7 kg·h/L | 0.28 kg/L | 1.11 pM |
| CC[C@H](C)[C@H](NC(=O)[C@H](CCCCNC(=O)CC[C@H](NC(=O)CCCCCCCCCCCCCCCCC(=O)O)C(=O)O)NC(=O)CNC(=O)[C@H](Cc1ccccc1)NC(=O)[C@H](CC(N)=O)NC(=O)[C@H](CC(=O)O)NC(=O)[C@H](CO)NC(=O)[C@H](CO)NC(=O)[C@H](Cc1c[nH]cn1)NC(=O)[C@H](Cc1c[nH]cn1)NC(=O)[C@H](CC(C)C)NC(=O)[C@H](Cc1ccccc1)NC(=O)[C@H](CCC(=O)O)NC(=O)[C@H](C)NC(=O)[C@H](CC(C)C)NC(=O)[C@H](CCCNC(=N)N)NC(=O)[C@H](C)NC(=O)[C@@H](NC(=O)[C@H](CCC(N)=O)NC(=O)[C@H](C)NC(=O)[C@@H](NC(=O)[C@H](CO)NC(=O)[C@H](CC(C)C)NC(=O)[C@H](Cc1c[nH]cn1)NC(=O)[C@H](CO)NC(=O)[C@H](C)NC(C)=O)[C@@H](C)O)[C@@H](C)O)C(=O)N[C@@H](CC(C)C)C(=O)N1CCC[C@H]1C(=O)N1CCC[C@H]1C(=O)N[C@H](C(=O)N[C@@H](CC(=O)O)C(=O)N[C@H](C(=O)NCC(=O)N[C@@H](CO)C(=O)N[C@@H](CC(N)=O)C(=O)N[C@H](C(=O)N1CCC[C@H]1C(N)=O)[C@@H](C)O)C(C)C)[C@@H](C)O [Compound 41, N^1-acetyl,N{Epsilon-25}-[(4S)-4-carboxy-4-(17-carboxyheptadecanoylamino)butanoyl]-[Ala1,Ser2,His3,Leu4,Ser5,Ala7,Gln8,Ala10,Glu14,His17,Asp21,Lys25,Pro28,Pro29,Asp31,Pro37]-human amylin] (Ac-ASHLSTAQTARLAEFLHHSSDNFGK([γGlu-C18 diacid])ILPPTDVGSNTP-NH2) |  |  |  | 1.16 pM |
